Molecules are shown by their SMILES. Numbers after ± are expanded uncertainties.

The nature of the first data set: activity coefficient (dimensionless); of the first substance listed, at infinite dilution; xn = mol fraction of the nth substance listed. Conditions: 328.15 K; 101 kPa; Liquid; Chromatography; x1 = 0.
As for `Cc1cccc(C)c1` [1,3-dimethylbenzene] + O=S(=O)([N-]S(=O)(=O)C(F)(F)F)C(F)(F)F.OCCC[n+]1ccccc1, the activity coefficient was found to be 3.58 ± 0.24. On the same count and under the same terms, in the case of `Cc1ccc(C)cc1` [1,4-dimethylbenzene] + O=S(=O)([N-]S(=O)(=O)C(F)(F)F)C(F)(F)F.OCCC[n+]1ccccc1 it was 3.6 ± 0.25; in that of `C1COCCO1` [1,4-dioxane] + O=S(=O)([N-]S(=O)(=O)C(F)(F)F)C(F)(F)F.OCCC[n+]1ccccc1, 0.541 ± 0.04; in that of `C=CCCCCCCCC` [1-decene] + O=S(=O)([N-]S(=O)(=O)C(F)(F)F)C(F)(F)F.OCCC[n+]1ccccc1, 115 ± 8. Same read-out and setting: in the case of `C=CCCCCC` [1-heptene] + O=S(=O)([N-]S(=O)(=O)C(F)(F)F)C(F)(F)F.OCCC[n+]1ccccc1 it was 30.7 ± 2.1; in that of `C#CCCCCC` [1-heptyne] + O=S(=O)([N-]S(=O)(=O)C(F)(F)F)C(F)(F)F.OCCC[n+]1ccccc1, 9.53 ± 0.65. The same measure, in the same setting: in the case of `C#CCCCC` [1-hexyne] + O=S(=O)([N-]S(=O)(=O)C(F)(F)F)C(F)(F)F.OCCC[n+]1ccccc1 it was 6.13 ± 0.42; in that of `C#CCCCCCC` [1-octyne] + O=S(=O)([N-]S(=O)(=O)C(F)(F)F)C(F)(F)F.OCCC[n+]1ccccc1, 14.9 ± 1; in that of `C=CCCC` [1-pentene] + O=S(=O)([N-]S(=O)(=O)C(F)(F)F)C(F)(F)F.OCCC[n+]1ccccc1, 12.7 ± 0.9. `CC(C)CC(C)(C)C` [2,2,4-trimethylpentane] + O=S(=O)([N-]S(=O)(=O)C(F)(F)F)C(F)(F)F.OCCC[n+]1ccccc1: the activity coefficient was determined as 67 ± 4.6. With `CCC(C)(C)C` [2,2-dimethylbutane] + O=S(=O)([N-]S(=O)(=O)C(F)(F)F)C(F)(F)F.OCCC[n+]1ccccc1, the activity coefficient amounted to 33.9 ± 2.3.

For the molecule `CCC(C)(C)OC` [2-methoxy-2-methylbutane] + O=S(=O)([N-]S(=O)(=O)C(F)(F)F)C(F)(F)F.OCCC[n+]1ccccc1, the activity coefficient worked out at 4.54 ± 0.31. Same read-out and setting: in the case of `COC(C)(C)C` [2-methoxy-2-methylpropane] + O=S(=O)([N-]S(=O)(=O)C(F)(F)F)C(F)(F)F.OCCC[n+]1ccccc1 it was 2.83 ± 0.19.

With `CCC(C)CC` [3-methylpentane] + O=S(=O)([N-]S(=O)(=O)C(F)(F)F)C(F)(F)F.OCCC[n+]1ccccc1, the activity coefficient came out at 36.6 ± 2.5. With `CC(=O)O` [acetic acid] + O=S(=O)([N-]S(=O)(=O)C(F)(F)F)C(F)(F)F.OCCC[n+]1ccccc1, the activity coefficient was found to be 0.277 ± 0.03. Take `CC(C)=O` [acetone] + O=S(=O)([N-]S(=O)(=O)C(F)(F)F)C(F)(F)F.OCCC[n+]1ccccc1: the activity coefficient stood at 0.421 ± 0.035. The same measure, in the same setting: in the case of `c1ccccc1` [benzene] + O=S(=O)([N-]S(=O)(=O)C(F)(F)F)C(F)(F)F.OCCC[n+]1ccccc1 it was 1.58 ± 0.1. For the molecule `CCCCO` [butan-1-ol] + O=S(=O)([N-]S(=O)(=O)C(F)(F)F)C(F)(F)F.OCCC[n+]1ccccc1, the activity coefficient was 2.14 ± 0.15. For `C1CCCCCC1` [cycloheptane] + O=S(=O)([N-]S(=O)(=O)C(F)(F)F)C(F)(F)F.OCCC[n+]1ccccc1, the activity coefficient is 29.7 ± 2. On the same count and under the same terms, in the case of `C1CCCCC1` [cyclohexane] + O=S(=O)([N-]S(=O)(=O)C(F)(F)F)C(F)(F)F.OCCC[n+]1ccccc1 it was 21.1 ± 1.4; in that of `C1=CCCCC1` [cyclohexene] + O=S(=O)([N-]S(=O)(=O)C(F)(F)F)C(F)(F)F.OCCC[n+]1ccccc1, 10.4 ± 0.7; in that of `C1CCCCCCC1` [cyclooctane] + O=S(=O)([N-]S(=O)(=O)C(F)(F)F)C(F)(F)F.OCCC[n+]1ccccc1, 41.6 ± 2.8.

The data set is the same for the next values; noted with them: 338.15 K; 101 kPa; Liquid; Chromatography; x1 = 0.
For the molecule `Cc1ccccc1C` [1,2-dimethylbenzene] + O=S(=O)([N-]S(=O)(=O)C(F)(F)F)C(F)(F)F.OCCC[n+]1ccccc1, the activity coefficient was determined as 3.13 ± 0.21. For the molecule `Cc1cccc(C)c1` [1,3-dimethylbenzene] + O=S(=O)([N-]S(=O)(=O)C(F)(F)F)C(F)(F)F.OCCC[n+]1ccccc1, the activity coefficient was 3.59 ± 0.24. The same measure, in the same setting: in the case of `Cc1ccc(C)cc1` [1,4-dimethylbenzene] + O=S(=O)([N-]S(=O)(=O)C(F)(F)F)C(F)(F)F.OCCC[n+]1ccccc1 it was 3.61 ± 0.25; in that of `C1COCCO1` [1,4-dioxane] + O=S(=O)([N-]S(=O)(=O)C(F)(F)F)C(F)(F)F.OCCC[n+]1ccccc1, 0.568 ± 0.041.

Take `C=CCCCCCCCC` [1-decene] + O=S(=O)([N-]S(=O)(=O)C(F)(F)F)C(F)(F)F.OCCC[n+]1ccccc1: the activity coefficient is 104 ± 7. Same read-out and setting: in the case of `C=CCCCCC` [1-heptene] + O=S(=O)([N-]S(=O)(=O)C(F)(F)F)C(F)(F)F.OCCC[n+]1ccccc1 it was 28.5 ± 1.9. Still for that read-out and setting: in the case of `C#CCCCCC` [1-heptyne] + O=S(=O)([N-]S(=O)(=O)C(F)(F)F)C(F)(F)F.OCCC[n+]1ccccc1 it was 9.21 ± 0.63; in that of `C#CCCCC` [1-hexyne] + O=S(=O)([N-]S(=O)(=O)C(F)(F)F)C(F)(F)F.OCCC[n+]1ccccc1, 6 ± 0.41; in that of `C#CCCCCCC` [1-octyne] + O=S(=O)([N-]S(=O)(=O)C(F)(F)F)C(F)(F)F.OCCC[n+]1ccccc1, 14.2 ± 1. On the same count and under the same terms, in the case of `C=CCCC` [1-pentene] + O=S(=O)([N-]S(=O)(=O)C(F)(F)F)C(F)(F)F.OCCC[n+]1ccccc1 it was 12 ± 0.8. `CC(C)CC(C)(C)C` [2,2,4-trimethylpentane] + O=S(=O)([N-]S(=O)(=O)C(F)(F)F)C(F)(F)F.OCCC[n+]1ccccc1: the activity coefficient came out at 60.7 ± 4.2. Consider `CCC(C)(C)C` [2,2-dimethylbutane] + O=S(=O)([N-]S(=O)(=O)C(F)(F)F)C(F)(F)F.OCCC[n+]1ccccc1, for which the activity coefficient turned out to be 30.9 ± 2.1.

Regarding `CCC(C)(C)OC` [2-methoxy-2-methylbutane] + O=S(=O)([N-]S(=O)(=O)C(F)(F)F)C(F)(F)F.OCCC[n+]1ccccc1, the activity coefficient amounted to 4.61 ± 0.31. Same read-out and setting: in the case of `COC(C)(C)C` [2-methoxy-2-methylpropane] + O=S(=O)([N-]S(=O)(=O)C(F)(F)F)C(F)(F)F.OCCC[n+]1ccccc1 it was 2.91 ± 0.2; in that of `CCC(C)CC` [3-methylpentane] + O=S(=O)([N-]S(=O)(=O)C(F)(F)F)C(F)(F)F.OCCC[n+]1ccccc1, 33.3 ± 2.3; in that of `CC(=O)O` [acetic acid] + O=S(=O)([N-]S(=O)(=O)C(F)(F)F)C(F)(F)F.OCCC[n+]1ccccc1, 0.298 ± 0.031. Same read-out and setting: in the case of `CC(C)=O` [acetone] + O=S(=O)([N-]S(=O)(=O)C(F)(F)F)C(F)(F)F.OCCC[n+]1ccccc1 it was 0.437 ± 0.035.

For the origin of these results see the NIST ThermoML archive (doi:10.1016/j.jct.2011.04.018).
